# Data as given in US7312237B2, “Combination of epothilone analogs and chemotherapeutic agents for the treatment of prolilferative diseases” (Bristol-Myers Squibb Co., priority 2001, dated 2007).
# Values joined by “and” are separate entries in the source; they are usually repeats but may differ in a detail not shown here. Identical values can stand only once. “Also recorded” adds a separate entry of the source.
# Assays:
# HCT116/VM46 = assay: In vitro cytotoxicity (MTS assay), HCT116/VM46; assay type: cell-based, human
# MIP = assay: In vitro cytotoxicity (MTS assay), MIP; assay type: cell-based; conditions: 72 h
# Method: (§1) The in vitro cytotoxicity was assessed in tumor cells by a tetrazolium-based colorimetric assay which takes advantage of the metabolic conversion of MTS (3-(4,5-dimethylthiazol-2-yl)-5-(3-carboxymethoxyphenyl)-2-(4-sulphenyl)-2H-tetrazolium, inner salt) to a reduced form that absorbs light at 492 nm. Cells were seeded 24 hr prior to drug addition. Following a 72 hour incubation at 37° C. with serially diluted compound, MTS, in combination with the electron coupling agent phenazine methosulfate, was added to the cells. The incubation was continued for 3 hours, then the absorbancy of the medium at 492 nm was measured with a spectrophotometer to obtain the number of surviving cells relative to control populations. The results are expressed as median cytotoxic concentrations (IC50 values).
# [1] = system: normal mouse lung fibroblast cell line MLF; assay: In vitro cytotoxicity (MTS assay), MLF; assay type: cell-based
# Method: as §1
# [2] = system: panel of tumor cell lines; assay: Oncology Diverse Cell Assay, panel of 21 cell lines; assay type: cell-based; conditions: 18 of the 21 cell lines tested
# Method: Bar graphs, on the right, depict the IC50 values of the cell lines listed on the left hand column (top to bottom).
# as §1
# [3] = system: tubulin isolated from calf brain; assay: Tubulin polymerization assay; assay type: biochemical
# HCT116 cells = assay: Mitotic blockade (cell cycle progression); assay type: cell-based, human; conditions: 7.5 nM, 8 hours
# [4] = system: HCT116 human colon carcinoma cell line; assay: Clonogenic cell colony-formation assay (single agent and combination, isobologram); assay type: cell-based; conditions: concentration killing clonogenic HCT-116 cells by 90%
# Excerpt: Analysis of the effects of combination treatment in vitro was by the isobologram and multiplicity methods described by Stephens and Steel
# The success of an anticancer agent is dependent not only on its antitumor activity as a single agent but also on its ability to combine successfully with other antineoplastic drugs.
# [5] = In vivo antitumor testing, Pat-7 in nude rats; conditions: nude, rat, in vivo, iv; read-out: OD (optimal dose or MTD)
# Method: (§2) The MTD was frequently equivalent to OD. When death occurs, the day of death was recorded.
# (§3) And, Log cell kill=T−C÷(3.32×TVDT)
# [6] = system: Pat-7 human ovarian carcinoma; assay: In vivo antitumor testing, Pat-7 in nude rats; conditions: Expt. 15, nude rats, IV q8dx2, OD 3 mg/kg
# Method: as §2, §3
# [7] = In vivo antitumor testing, M5076 murine sarcoma; parameters: species or system mice; conditions: (C57Bl/6×DBA/2)F1 hybrid, mouse, in vivo, iv, Compound 1 IV, read-out: OD (optimal dose or MTD)
# Method: (§4) The murine fibrosarcoma M5076 was also employed.
# (§5) The human tumors were maintained in Balb/c nu/nu nude mice. M5076 was maintained in C57BL/6 mice. Tumors were propagated as subcutaneous transplants in the appropriate mouse strain using tumor fragments obtained from donor mice.
# (§6) All tumor implants for efficacy testing were subcutaneous (sc).
# as §2, §3
# [8] = system: M5076 murine fibrosarcoma; assay: In vivo antitumor testing, M5076 murine sarcoma; parameters: species or system mice
# Method: as §4, §5, §6, §2, §3
# [9] = system: A2780 human ovarian carcinoma; assay: In vivo antitumor testing, A2780 in nude rats
# Method: as §2, §3
# A2780 grown in nude rats was also utilized.
# [10] = In vivo antitumor testing, HCT116 xenograft; parameters: species or system nude mice; conditions: nude, mouse, in vivo, read-out: OD (optimal dose or MTD)
# Method: as §6, §2, §3
# [11] = system: HCT116 human colon carcinoma; assay: In vivo antitumor testing, HCT116 xenograft; parameters: species or system nude mice
# Method: as §6, §2, §3
# [12] = In vivo antitumor testing, LS174T xenograft; parameters: species or system nude mice; conditions: nude, mouse, in vivo, iv; read-out: OD (optimal dose or MTD)
# Method: as §6, §2, §3
# [13] = system: LS174T human colon carcinoma; assay: In vivo antitumor testing, LS174T xenograft; parameters: species or system nude mice; conditions: Expt. R578, IV q4dx3, OD 16 mg/kg
# Method: as §6, §2, §3
# [14] = Stability as a function of pH; assay type: physicochemical; conditions: neutral pH versus low pH
# [15] = Expt. 52, IV q2dx5, OD 6.3 mg/kg
# [16] = Expt. 52, IV q4dx3, OD 10 mg/kg
# [17] = Expt. 52, IV q8dx2, OD 24 mg/kg
# [18] = Expt. 52, PO q2dx5, OD 90 mg/kg
smiles,measurement,setting,value
"C/C(=C\c1csc(C)n1)[C@@H]1C[C@@H]2O[C@]2(C)CCC[C@H](C)[C@H](O)[C@@H](C)C(=O)C(C)(C)[C@@H](O)CC(=O)N1 (relative stereo) [Compound 1, [1S-[1R*,3R*(E),7R*,10S*,11R*,12R*,16S*]]-7,11-dihydroxy-8,8,10,12,16-pentamethyl-3-[1-methyl-2-(2-methyl-4-thiazolyl)ethenyl]-4-aza-17-oxabicyclo[14.1.0] heptadecane-5,9-dione]",IC50,"HCT116/VM46; Homo sapiens, HCT-116/VM46, HCT116/VM46 (MDR), 72 hour incubation",24.5 nM
same,resistance ratio (R/S),HCT116/VM46; IC50 HCT116/VM46 versus sensitive HCT116,9.4
same,IC50,MIP,24.8 nM
same,IC50,[1],34.5 nM
same,IC50,[2],1.4 to 6 nM
same,Ratio of Polymerization Potency of Analog/Paclitaxel,[3],0.4
same,block of cells in mitosis,HCT116 cells,almost completely blocks cells in mitosis
same,IC90,[4],~7.5 nM
same,MTD,[5],3 mg/kg
same,LCK (gross log cell kill),[6],>5
same,cures/total,[6],4 of 6 and (4/6)
same,MTD,[7]; q2dx5,8.4 mg/kg
same,MTD,[7]; q4dx3,24 mg/kg
same,LCK (gross log cell kill),"[8]; Expt. 159, IV q2dx5, OD 8.4 mg/kg",0.5
same,LCK (gross log cell kill),"[8]; Expt. 162, IV q2dx5, OD 8.4 mg/kg",0.7
same,LCK (gross log cell kill),"[8]; Expt. 172, IV q4dx3, OD 24 mg/kg",1.0
same,MTD,"[9]; Compound 1, every 2 days x5, nude rats",1.2 mg/kg/inj
same,LCK,"[9]; nude rats, every 2 days x5, MTD 1.2 mg/kg/inj",0.3
same,MTD,"[10]; iv, Compound 1 IV, q2dx5",6.3 mg/kg
same,MTD,"[10]; iv, Compound 1 IV, q4dx3",10 mg/kg
same,MTD,"[10]; iv, Compound 1 IV, q8dx2",24 mg/kg
same,MTD,"[10]; po, Compound 1 PO, q2dx5",90 mg/kg
same,LCK (gross log cell kill),[11]; [15],> 6.3
same,cures/total,[11]; [15],4 of 8 and 4/8
same,LCK (gross log cell kill),[11]; [16],> 6.3
same,cures/total,[11]; [16],5 of 8 and 5/8
same,LCK (gross log cell kill),[11]; [17],> 6.3
same,cures/total,[11]; [17],8 of 8 and 8/8
same,LCK (gross log cell kill),[11]; [18],>6.3
same,cures/total,[11]; [18],seven of eight; also recorded: (7/8)
same,MTD,[12],16 mg/kg
same,LCK (gross log cell kill),[13],2.3
same,stability versus pH,[14],significantly more stable at neutral pH than at low pH
